One series deals with rgRSV224 virus. Briefly: microbe, parasite or virus in culture. It is filed as cell-based, respiratory syncytial virus (RSV). Particulars: human respiratory syncytial virus, HeLa, 72 h, read-out: RSV HELA pEC50 (converted).

Experimental findings from US10131673B2, “Piperidine substituted tricyclic pyrazolo[1,5-a]pyrimidine derivatives with inhibitory activity on the replication of the respiratory syncytial virus (RSV)” (priority 2014, dated 2018) are described below.

Experimental for HeLa cells: Black 384-well clear-bottom microtiter plates (Corning, Amsterdam, The Netherlands) were filled via acoustic drop ejection using the echo liquid handler (Labcyte, Sunnyvale, Calif.). 200 nL of compound stock solutions (100% DMSO) were transferred to the assay plates. 9 serial 4-fold dilutions of compound were made, creating per quadrant the same compound concentration. The assay was initiated by adding 10 μL of culture medium to each well (RPMI medium without phenol red, 10% FBS-heat inactivated, 0.04% gentamycin (50 mg/mL). All addition steps are done by using a multidrop dispenser (Thermo Scientific, Erembodegem, Belgium). Next, rgRSV224 virus (MOI=1) diluted in culture medium was added to the plates. rgRSV224 virus is an engineered virus that includes an additional GFP gene (Hallak L K, Spillmann D, Collins P L, Peeples M E. Glycosaminoglycan sulfation requirements for respiratory syncytial virus infection; Journal of virology (2000), 74(22), 10508-13) and was in-licensed from the NIH (Bethesda, Md., USA). Finally, 20 μL of a HeLa cell suspension (3,000 cells/well) were plated. Medium, virus- and mock-infected controls were included in each test. The wells contain 0.05% DMSO per volume. Cells were incubated at 37° C. in a 5% CO2 atmosphere. Three days post-virus exposure, viral replication was quantified by measuring GFP expression in the cells by an in house developed MSM laser microscope (Tibotec, Beerse, Belgium). The EC50 was defined as the 50% inhibitory concentration for GFP expression. In parallel, compounds were incubated for three days in a set of white 384-well microtiter plates (Corning) and the cytotoxicity of compounds in HeLa cells was determined by measuring the ATP content of the cells using the ATPlite kit (Perkin Elmer, Zaventem, Belgium) according to the manufacturer's instructions. The CC50 was defined as the 50% concentration for cytotoxicity.

With `Cc1ccc(NS(C)(=O)=O)c(C(=O)N2CCCCC2c2cc3nc4c(c(N5CCOCC5)n3n2)CCCC4)c1` (racemic) [Compound P1, N-(4-methyl-2-(2-(9-morpholino-5,6,7,8-tetrahydropyrazolo[5,1-b]quinazolin-2-yl)piperidine-1-carbonyl)phenyl)methanesulfonamide], the EC50 with rgRSV224 virus was 0.00178 µM. Further, in the series on HeLa cells, the “TOX HELA pCC50” value is 4.4.
In the case of `Cc1ccc2ncnc(N3CCCCC3c3cc4nc5c(c(N6CCOCC6)n4n3)CCCC5)c2c1` (centres unmarked) [Compound P4, 4-(2-(1-(6-methylquinazolin-4-yl)piperidin-2-yl)-5,6,7,8-tetrahydropyrazolo[5,1-b]quinazolin-9-yl)morpholine], the EC50 in the series with rgRSV224 virus is 0.166 µM. Also, in the series on HeLa cells, the “TOX HELA pCC50” value was 4.7.
For `CCc1ccc2ncnc(N3CCCCC3c3cc4nc5c(c(N6CCOCC6)n4n3)CCCC5)c2c1C` (centres unmarked) [Compound P13, 4-(2-(1-(6-ethyl-5-methylquinazolin-4-yl)piperidin-2-yl)-5,6,7,8-tetrahydropyrazolo[5,1-b]quinazolin-9-yl)morpholine], in that order: 0.724 µM and 4.7.
In the case of `Cc1ccc2nc(Cl)nc(N3CCCCC3c3cc4nc5c(c(N6CCOCC6)n4n3)CCCC5)c2c1` (centres unmarked) [Compound P8, 4-(2-(1-(2-chloro-6-methylquinazolin-4-yl)piperidin-2-yl)-5,6,7,8-tetrahydropyrazolo[5,1-b]quinazolin-9-yl)morpholine], in the series on rgRSV224 virus, the EC50 is 0.162 µM. In the series on HeLa cells, the “TOX HELA pCC50” value stood at 4.5.
Consider `Cc1ccc(NS(C)(=O)=O)c(C(=O)N2CCCCC2c2cc3nc4c(c(N5CCOCC5)n3n2)COCC4)c1` (centres unmarked) [Compound P34, N-(4-methyl-2-(2-(9-morpholino-6,8-dihydro-5H-pyrano[4,3-d]pyrazolo-[1,5-a]pyrimidin-2-yl)piperidine-1-carbonyl)phenyl)methanesulfonamide], for which, in the series with rgRSV224 virus, the EC50 was 0.0209 µM. The “TOX HELA pCC50” value with HeLa cells is 4.6.
On the same counts, the results for `Cc1cccc2ncnc(N3CCCCC3c3cc4nc5c(c(N(C)C)n4n3)CCCC5)c12` (centres unmarked) [Compound P16, N,N-dimethyl-2-(1-(5-methylquinazolin-4-yl)piperidin-2-yl)-5,6,7,8-tetrahydropyrazolo[5,1-b]quinazolin-9-amine] are 0.407 µM and 4.
With `Cc1ccc(NS(C)(=O)=O)c(C(=O)N2CCCCC2c2cc3nc4c(c(N5CCOCC5)n3n2)CCC4)c1` (centres unmarked) [Compound P20, N-(4-methyl-2-(2-(8-morpholino-6,7-dihydro-5H-cyclopenta[d]pyrazolo-[1,5-a]pyrimidin-2-yl)piperidine-1-carbonyl)phenyl)methanesulfonamide], the EC50 with rgRSV224 virus was 0.0229 µM. Also, the “TOX HELA pCC50” value with HeLa cells is listed as 4.2.
On the same counts, the results for `Cc1ccc2nc(NS(C)(=O)=O)nc(N3CCCCC3c3cc4nc5c(c(N6CCOCC6)n4n3)CCCC5)c2c1` (centres unmarked) [Compound P9, N-(6-methyl-4-(2-(9-morpholino-5,6,7,8-tetrahydropyrazolo[5,1-b]-quinazolin-2-yl)piperidin-1-yl)quinazolin-2-yl)methanesulfonamide] are 0.0135 µM and 4.3.
With `Cc1cccc2nc(Cl)nc(N3CCCCC3c3cc4nc5c(c(N6CCOCC6)n4n3)CCCC5)c12` (centres unmarked) [Compound P6, 4-(2-(1-(2-chloro-5-methylquinazolin-4-yl)piperidin-2-yl)-5,6,7,8-tetrahydropyrazolo[5,1-b]quinazolin-9-yl)morpholine], in the series on rgRSV224 virus, the EC50 was 1.2 µM. Further, the “TOX HELA pCC50” value with HeLa cells was determined as 4.8.
For `Cc1ccc(NS(C)(=O)=O)c(C(=O)N2CCCC[C@H]2c2cc3nc4c(c(N5CCOCC5)n3n2)CCCC4)c1` [Compound P3, (S)—N-(4-methyl-2-(2-(9-morpholino-5,6,7,8-tetrahydropyrazolo[5,1-b]quinazolin-2-yl)piperidine-1-carbonyl)-phenyl)methanesulfonamide], in the series with rgRSV224 virus, the EC50 was 0.000562 µM. Besides, the “TOX HELA pCC50” value with HeLa cells was 4.5.
For `COc1cccc2ncnc(N3CCCCC3c3cc4nc5c(c(N6CCOCC6)n4n3)CCCC5)c12` (centres unmarked) [Compound P12, 4-(2-(1-(5-methoxyquinazolin-4-yl)piperidin-2-yl)-5,6,7,8-tetrahydropyrazolo[5,1-b]quinazolin-9-yl)morpholine], in that order: 0.0759 µM and 4.4.
For `FC(F)(F)c1cccc2ncnc(N3CCCCC3c3cc4nc5c(c(N6CCOCC6)n4n3)CCCC5)c12` (centres unmarked) [Compound P11, 4-(2-(1-(5-(trifluoromethyl)quinazolin-4-yl)piperidin-2-yl)-5,6,7,8-tetrahydropyrazolo[5,1-b]quinazolin-9-yl)morpholine], in that order: 0.676 µM and 4.7.
On the same counts, the results for `Cc1cccc2ncnc(N3CCCCC3c3cc4nc5c(c(N6CCOCC6)n4n3)COCC5)c12` (centres unmarked) [Compound P30, 2-(1-(5-methylquinazolin-4-yl)piperidin-2-yl)-9-morpholino-6,8-dihydro-5H-pyrano[4,3-d]pyrazolo[1,5-a]pyrimidine] are 0.282 µM and 4.
